Data as given in article PMC4808398 (Cell, 2016).
pIC50: −log10 of the molar value.

Legend:
[1] = molecular target: CASTOR1 homodimer-GATOR2 complex (Homo sapiens, UniProt Q8WTX7); format: binding
[2] = molecular target: CASTOR1-CASTOR2 heterodimer-GATOR2 complex (Homo sapiens, UniProt Q8WTX7); format: binding

CASTOR1 homodimer-GATOR2 complex, sequence (Q8WTX7 whole entry): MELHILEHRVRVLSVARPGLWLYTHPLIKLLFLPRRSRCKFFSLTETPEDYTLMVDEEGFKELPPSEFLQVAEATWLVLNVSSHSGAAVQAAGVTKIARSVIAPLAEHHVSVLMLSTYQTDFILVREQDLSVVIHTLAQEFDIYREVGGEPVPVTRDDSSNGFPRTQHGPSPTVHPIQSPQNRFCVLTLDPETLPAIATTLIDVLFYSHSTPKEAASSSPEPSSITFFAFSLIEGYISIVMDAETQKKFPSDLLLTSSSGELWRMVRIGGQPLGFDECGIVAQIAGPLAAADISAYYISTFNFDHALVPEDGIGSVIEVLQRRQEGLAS
CASTOR1 homodimer-GATOR2 complex, sequence (Q9NXC5 whole entry partner): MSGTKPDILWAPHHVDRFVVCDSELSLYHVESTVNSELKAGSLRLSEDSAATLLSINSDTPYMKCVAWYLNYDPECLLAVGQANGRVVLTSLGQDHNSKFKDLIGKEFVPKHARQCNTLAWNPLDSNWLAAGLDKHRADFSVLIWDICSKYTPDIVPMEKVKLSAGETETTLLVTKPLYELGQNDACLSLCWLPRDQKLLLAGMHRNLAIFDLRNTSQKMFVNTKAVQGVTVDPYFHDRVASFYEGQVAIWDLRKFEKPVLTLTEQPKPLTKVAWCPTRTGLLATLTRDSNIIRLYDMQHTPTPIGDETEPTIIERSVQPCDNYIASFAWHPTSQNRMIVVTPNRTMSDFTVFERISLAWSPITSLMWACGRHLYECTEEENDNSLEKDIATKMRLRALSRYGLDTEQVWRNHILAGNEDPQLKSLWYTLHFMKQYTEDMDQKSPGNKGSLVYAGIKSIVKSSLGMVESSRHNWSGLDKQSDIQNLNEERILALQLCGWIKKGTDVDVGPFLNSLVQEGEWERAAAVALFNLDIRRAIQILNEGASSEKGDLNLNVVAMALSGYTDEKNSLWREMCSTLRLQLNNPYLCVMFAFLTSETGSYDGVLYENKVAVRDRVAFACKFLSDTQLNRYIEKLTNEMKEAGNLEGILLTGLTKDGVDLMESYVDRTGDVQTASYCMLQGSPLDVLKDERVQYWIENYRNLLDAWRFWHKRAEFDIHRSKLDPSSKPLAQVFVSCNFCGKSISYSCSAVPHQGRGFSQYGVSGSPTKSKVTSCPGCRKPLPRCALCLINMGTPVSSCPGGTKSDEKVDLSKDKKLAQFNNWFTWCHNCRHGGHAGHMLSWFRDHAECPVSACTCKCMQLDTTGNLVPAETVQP
CASTOR1 homodimer-GATOR2 complex, sequence (Q96S15 whole entry partner): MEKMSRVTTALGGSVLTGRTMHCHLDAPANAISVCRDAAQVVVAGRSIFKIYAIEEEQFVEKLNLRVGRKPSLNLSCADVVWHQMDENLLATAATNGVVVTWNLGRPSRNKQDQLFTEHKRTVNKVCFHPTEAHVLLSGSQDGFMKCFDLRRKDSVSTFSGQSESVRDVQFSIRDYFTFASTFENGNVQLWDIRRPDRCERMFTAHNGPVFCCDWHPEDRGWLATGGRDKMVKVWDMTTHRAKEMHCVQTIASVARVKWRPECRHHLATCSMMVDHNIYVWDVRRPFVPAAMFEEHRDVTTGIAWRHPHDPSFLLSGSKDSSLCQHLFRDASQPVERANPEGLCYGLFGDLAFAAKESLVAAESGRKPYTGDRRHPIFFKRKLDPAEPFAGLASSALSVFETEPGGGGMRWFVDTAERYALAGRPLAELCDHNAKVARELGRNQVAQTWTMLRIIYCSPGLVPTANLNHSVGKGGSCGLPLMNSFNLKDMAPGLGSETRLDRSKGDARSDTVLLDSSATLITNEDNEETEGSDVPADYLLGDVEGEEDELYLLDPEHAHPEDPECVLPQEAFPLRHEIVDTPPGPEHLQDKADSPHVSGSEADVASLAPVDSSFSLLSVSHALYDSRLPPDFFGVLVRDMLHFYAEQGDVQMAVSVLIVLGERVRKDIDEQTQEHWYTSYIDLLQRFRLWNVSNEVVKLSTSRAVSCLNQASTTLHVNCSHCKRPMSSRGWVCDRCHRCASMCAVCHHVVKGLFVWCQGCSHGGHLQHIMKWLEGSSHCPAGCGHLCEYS
CASTOR1 homodimer-GATOR2 complex, sequence (Q6PJI9 whole entry partner): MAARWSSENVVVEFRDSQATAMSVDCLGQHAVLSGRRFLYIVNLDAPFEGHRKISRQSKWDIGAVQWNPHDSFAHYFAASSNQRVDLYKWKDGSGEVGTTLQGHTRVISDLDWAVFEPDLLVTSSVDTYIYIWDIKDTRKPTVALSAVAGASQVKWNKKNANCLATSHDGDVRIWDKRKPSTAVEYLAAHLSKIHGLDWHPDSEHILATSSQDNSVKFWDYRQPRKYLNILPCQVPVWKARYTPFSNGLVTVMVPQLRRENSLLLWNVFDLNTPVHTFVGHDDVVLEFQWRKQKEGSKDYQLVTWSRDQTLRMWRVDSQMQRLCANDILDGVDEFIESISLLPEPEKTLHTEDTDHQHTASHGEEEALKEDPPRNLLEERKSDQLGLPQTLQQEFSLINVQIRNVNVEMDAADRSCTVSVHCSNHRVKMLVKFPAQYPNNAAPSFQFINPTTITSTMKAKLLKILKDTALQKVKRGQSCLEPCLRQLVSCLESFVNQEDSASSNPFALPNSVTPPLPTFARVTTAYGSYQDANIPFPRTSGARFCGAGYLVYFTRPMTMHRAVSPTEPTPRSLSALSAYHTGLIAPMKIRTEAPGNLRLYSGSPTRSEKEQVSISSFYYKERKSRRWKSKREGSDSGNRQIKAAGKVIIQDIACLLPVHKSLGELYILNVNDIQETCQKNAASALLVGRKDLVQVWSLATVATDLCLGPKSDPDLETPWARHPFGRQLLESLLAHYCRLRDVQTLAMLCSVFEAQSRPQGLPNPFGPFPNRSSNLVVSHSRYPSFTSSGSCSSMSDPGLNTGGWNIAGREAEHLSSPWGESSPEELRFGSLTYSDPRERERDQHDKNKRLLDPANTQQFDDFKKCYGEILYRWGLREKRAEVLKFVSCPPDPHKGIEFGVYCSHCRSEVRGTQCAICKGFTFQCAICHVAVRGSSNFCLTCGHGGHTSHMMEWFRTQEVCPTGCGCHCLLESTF
CASTOR1 homodimer-GATOR2 complex, sequence (Q96EE3 whole entry partner): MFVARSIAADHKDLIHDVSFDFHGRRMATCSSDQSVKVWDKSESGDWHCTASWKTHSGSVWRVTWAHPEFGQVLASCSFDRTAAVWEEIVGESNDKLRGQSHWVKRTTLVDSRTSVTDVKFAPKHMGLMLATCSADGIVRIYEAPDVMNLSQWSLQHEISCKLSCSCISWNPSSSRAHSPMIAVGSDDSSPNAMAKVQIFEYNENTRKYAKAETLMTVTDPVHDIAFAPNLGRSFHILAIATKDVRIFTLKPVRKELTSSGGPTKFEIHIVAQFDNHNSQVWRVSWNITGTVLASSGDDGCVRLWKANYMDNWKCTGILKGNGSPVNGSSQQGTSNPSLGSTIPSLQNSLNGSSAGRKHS
CASTOR1 homodimer-GATOR2 complex, sequence (P55735 2-322 partner): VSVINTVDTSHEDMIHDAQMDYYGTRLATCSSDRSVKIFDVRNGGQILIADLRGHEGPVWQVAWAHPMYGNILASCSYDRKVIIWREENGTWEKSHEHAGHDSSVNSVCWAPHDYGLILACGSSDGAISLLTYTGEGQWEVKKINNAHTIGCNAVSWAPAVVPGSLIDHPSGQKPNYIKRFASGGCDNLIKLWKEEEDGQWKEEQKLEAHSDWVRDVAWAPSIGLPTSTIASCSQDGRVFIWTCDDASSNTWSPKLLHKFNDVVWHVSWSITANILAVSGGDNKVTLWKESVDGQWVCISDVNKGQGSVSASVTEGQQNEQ

- pIC50 [1]: 4.40 to 4.70
- pIC50 [2]: 4.40 to 4.70
SMILES: N=C(N)NCCC[C@H](N)C(=O)O [arginine]
